Experiments:
[1] = test system: Salmonella typhimurium TA98 line, TA100 line; assay: FAT test (mutagenicity); set-up: key: When the mutagenicity is negative, the compound is shown as (−); When positive, the compound is shown as (+); settings: TA98 and TA100 lines; non-metabolism-activation and metabolism-activation conditions
Method: 20 μL of Salmonella enterica subsp. typhimurium (Salmonella typhimurium TA98 line, TA100 line) cryopreserved was inoculated to 10 mL of liquid nutrient medium (2.5% Oxoid nutrient broth No. 2) and then precultured at 37° C. for 10 hours with shaking. Regarding TA98 line, after 9 mL of a bacterial suspension was centrifuged (2000×g, 10 minutes) to remove the culture solution, the bacteria was suspended in 9 mL of Micro F buffer solution (K2HPO4: 3.5 g/L, KH2PO4: 1 g/L, (NH4)2SO4: 1 g/L, tri-sodium citric acid dihydrate: 0.25 g/L, MgSO4.7H2O: 0.1 g/L), and then added to 110 mL of Exposure media (Micro F buffer solution containing biotin: 8 μg/mL, histidine: 0.2 μg/mL, glucose: 8 mg/mL). Regarding TA 100 line, 120 mL of Exposure media was added to 3.16 mL of the bacterial suspension to prepare a test bacterial suspension. 12 μL of a solution of a test substance in DMSO (diluted eight times in a common ratio of 2 from the maximum dose of 50 mg/mL); 12 μL of DMSO as a negative control; 50 μg/mL 4-nitroquinoline-1-oxide solution in DMSO for TA98 line or 0.25 μg/mL 2-(2-furyl)-3-(5-nitro-2-furyl)acrylamide solution in DMSO as a positive control for TA 100 line in the case of a non-metabolism-activation condition; 12 μL of 40 μg/mL 2-aminoanthracene solution in DMSO for TA98 line or 20 μg/mL of 2-aminoanthracene solution in DMSO for TA100 line in the case of a metabolism-activation condition; were each mixed with 588 μL of the test bacterial suspension (in the case of a metabolism activation condition, a mixed solution of 498 μL of the test bacterial suspension and 90 μL S9 mix) and then cultured at 37° C. at 90 minutes with shaking. 460 μL of the bacterial suspension to which a test substance was exposed was mixed with 230 μL of Indicator media (a Micro F buffer solution containing 8 μg/mL biotin, 0.2 μg/mL histidine, 8 mg/mL glucose, and 37.5 μg/mL bromocresol purple). 50 μL thereof was dispensed to microplate 48 wells/dose and then statically cultured at 37° C. for 3 days. In a well containing bacteria which obtained proliferation potency by mutation of the amino acid (histidine) synthetase gene, the change of pH caused the color change from purple to yellow. Thus, in 48 wells per dose, the number of the bacteria-proliferation wells in which the color changed to yellow was counted, compared with a group of negative controls, and then evaluated. When the mutagenicity is negative, the compound is shown as (−). When positive, the compound is shown as (+).

PI-3 kinase γ = PI-3 kinase γ (Homo sapiens, UniProt P48736); assay: PI3Kγ inhibitory activity (Ki value), HTRF; type: biochemical; settings: Ki=IC50/(1+10 μM ATP/Km)
Procedure, shortened: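 IC50 was measured by HTRF over 50-0.05 μmol/L compound and fitted by logistic approximation or two-point linear regression. ATP Km came from Lineweaver-Burk plots of HTRF signal at 0.625-80 μmol/L ATP. Ki = IC50/(1+10 μM/Km).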

[2] = test system: AKT phosphorylation in human monocyte-like cell line THP-1; assay: AKT phosphorylation inhibitory activity in MCP-1-stimulated THP-1 cells (ELISA); type: cell-based; settings: 1 μmol/L solution of each compound, MCP-1 stimulation, read-out: AKT phosphorylation inhibition ratio
Method: (1) The AKT phosphorylation inhibitory activity of a compound was evaluated according to the following procedure. (2) Human monocyte-like cell line THP-1 was washed with RPMI-1640 media, incubated in the presence of 5% CO2 at 37° C. for 3 hours, washed with Hank's balanced salt solution (HBSS), adjusted to a cell concentration of 6.6×10^6/mL, and then used in an experiment. (3) 30 μL of the cell suspension and 60 μL of each compound solution containing 0.2% DMSO/HBSS were mixed and then preincubated at 37° C. for 5 minutes. 30 μL of HBSS containing 4 μg/mL of MCP-1 was added thereto and then incubated for 30 seconds at 37° C. (4) 30 μl of a cell lysate (20 mmol/L Tris-HCl (pH 7.5), 150 mmol/L NaCl, 1 mmol/L Na2EDTA, 1 mmol/L EGTA, 1% Triton, 2.5 mmol/L sodium pyrophosphate, 1 mmol/L β-glycerophosphate, 1 mmol/L Na3VO4, 1 μg/ml leupeptin, 50 nmol/L APMSF) was added thereto to lyse cells. (5) The amount of AKT phosphorylation in the cell lysate was measured by ELISA method. (6) Anti-phospho-Akt (Ser473) antibodies (clone 193H12, derived from a rabbit) were immobilized onto the solid phase of a micro well plate. 100 μL of the prepared cell lysate was added to the micro well plate, incubated for 2 hours at 37° C., and then washed four times with Phosphate Buffered Saline containing 0.05% Tween-20. (7) An anti-AKT1 antibody (clone 2H10, derived from a mouse) was added thereto, incubated for 1 hour at 37° C., washed similarly, and then reacted with an HRP-labeled anti-mouse IgG antibody. (8) After incubating at 37° C. for 30 minutes and then washing similarly, 100 μL of TMB (3,3′,5,5″-tetramethylbenzidine) was added thereto, followed by reacting at room temperature for 30 minutes. (9) 100 μL of 1 mol/L sulfuric acid was added to quench the color reaction and then the absorbance at 450 nm was measured. (10) A series of diluted cell lysates of a positive control (a sample in the absence of a compound) were used to prepare a calibration curve, the amount of AKT phosphorylation in a sample in the absence of MCP-1 was defined as 0% activity to calculate an inhibition ratio. The measurement was performed for a 1 μmol/L solution of each compound.

Chain of PI-3 kinase γ (P48736 whole entry): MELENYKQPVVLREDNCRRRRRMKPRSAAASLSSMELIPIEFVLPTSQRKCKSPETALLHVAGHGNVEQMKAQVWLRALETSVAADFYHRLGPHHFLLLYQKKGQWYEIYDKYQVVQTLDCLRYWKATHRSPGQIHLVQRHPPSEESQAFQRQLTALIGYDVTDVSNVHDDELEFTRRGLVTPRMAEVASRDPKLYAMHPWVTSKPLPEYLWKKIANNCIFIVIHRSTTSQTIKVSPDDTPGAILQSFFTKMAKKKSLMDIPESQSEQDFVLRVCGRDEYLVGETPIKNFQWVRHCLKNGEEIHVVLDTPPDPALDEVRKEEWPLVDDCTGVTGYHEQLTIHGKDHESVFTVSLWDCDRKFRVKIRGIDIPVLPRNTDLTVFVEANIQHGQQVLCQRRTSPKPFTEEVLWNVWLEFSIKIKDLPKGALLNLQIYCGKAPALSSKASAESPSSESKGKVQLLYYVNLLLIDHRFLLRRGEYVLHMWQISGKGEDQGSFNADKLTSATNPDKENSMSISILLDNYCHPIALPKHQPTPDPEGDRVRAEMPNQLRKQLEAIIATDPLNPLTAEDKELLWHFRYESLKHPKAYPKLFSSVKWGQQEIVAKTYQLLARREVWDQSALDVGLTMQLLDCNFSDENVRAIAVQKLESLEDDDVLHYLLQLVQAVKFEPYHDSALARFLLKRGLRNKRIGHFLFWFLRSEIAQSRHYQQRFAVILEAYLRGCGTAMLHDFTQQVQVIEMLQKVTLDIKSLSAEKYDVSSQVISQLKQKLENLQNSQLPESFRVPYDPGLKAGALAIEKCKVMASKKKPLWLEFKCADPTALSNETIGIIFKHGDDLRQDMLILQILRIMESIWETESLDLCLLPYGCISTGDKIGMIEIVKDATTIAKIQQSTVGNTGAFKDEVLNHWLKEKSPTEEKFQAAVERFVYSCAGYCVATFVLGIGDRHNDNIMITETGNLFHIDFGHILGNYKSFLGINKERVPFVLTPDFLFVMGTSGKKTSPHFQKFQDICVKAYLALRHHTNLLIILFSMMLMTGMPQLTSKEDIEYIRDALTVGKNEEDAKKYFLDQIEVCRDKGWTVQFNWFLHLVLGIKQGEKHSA

Row | Compound | mutagenicity (FAT test) [1] | Ki (PI-3 kinase γ) | inhibition [2]
1 | CNC(=O)Nc1cc2n(n1)CCN2c1ccc(S(C)(=O)=O)cc1 [Compound I-89] | (−) |  | 
2 | CNC(=O)Nc1nc2c(s1)CN(c1ccnc(OC)n1)CC2 [Compound I-142] | (−) |  | 
3 | COc1cc(N2CCc3nc(NC(=O)NCC(=O)O)sc3C2)nc(OC)n1 [Compound I-208] |  | 22 nM | 
4 | COc1cc(N2CCc3nc(NC(=O)NCc4cc(=O)[nH]o4)sc3C2)nc(OC)n1 [Compound I-279] |  | 29 nM | 
5 | CN1CCc2cc(N3CCn4nc(NC(=O)c5cccnc5)cc43)ccc2C1=O [Compound I-347] |  |  | 80.6%
6 | CN1CCc2cc(N3CCn4nc(NC(=O)c5ccco5)cc43)ccc2C1=O [Compound I-358] | (−) |  | 95.9%

— patent US20110230472A1, “RING-FUSED AZOLE DERIVATIVE HAVING PI3K-INHIBITING ACTIVITY” (Shionogi & Co., Ltd., priority 2008, published 2011)
